The record followed here is article PMC10379611 (International Journal of Molecular Sciences, 2023).

What all share (type): cell-based
Assay [1] deals with T1, CNT1 (Homo sapiens, UniProt O00337).
T1 construct: expressed in transfected cells; host or cells: MDCKII (lentiviral transduction)
T1 sequence (O00337 1-649): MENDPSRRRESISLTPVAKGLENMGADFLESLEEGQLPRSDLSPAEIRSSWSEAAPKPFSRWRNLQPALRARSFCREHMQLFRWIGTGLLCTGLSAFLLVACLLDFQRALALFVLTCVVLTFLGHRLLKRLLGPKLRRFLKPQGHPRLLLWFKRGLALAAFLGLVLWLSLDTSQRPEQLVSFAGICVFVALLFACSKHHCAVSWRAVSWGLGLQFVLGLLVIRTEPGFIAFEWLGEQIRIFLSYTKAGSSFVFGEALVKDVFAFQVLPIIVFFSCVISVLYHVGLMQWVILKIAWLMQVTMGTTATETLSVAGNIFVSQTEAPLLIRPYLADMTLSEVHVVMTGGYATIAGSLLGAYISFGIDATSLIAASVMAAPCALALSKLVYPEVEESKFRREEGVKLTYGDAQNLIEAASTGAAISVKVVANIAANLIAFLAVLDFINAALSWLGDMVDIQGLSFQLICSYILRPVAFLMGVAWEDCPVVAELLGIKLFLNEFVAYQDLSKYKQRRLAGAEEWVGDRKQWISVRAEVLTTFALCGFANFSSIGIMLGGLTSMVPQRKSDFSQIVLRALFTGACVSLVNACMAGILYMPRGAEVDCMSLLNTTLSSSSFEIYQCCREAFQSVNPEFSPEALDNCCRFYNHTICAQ
Briefly: CNT1-mediated uridine uptake in CNT1-MDCKII cells. To be noted: for IC50: MDCKII cells, 1 µM uridine. The procedure:
ENT and CNT transporter interactions were investigated in transporter-overexpressing cell lines. Madin-Darby Canine Kidney II (MDCKII) cell lines overexpressing the human uptake transporters CNT1, CNT2, ENT1, and ENT2 were generated via lentiviral transduction. Cell cultures were maintained in Dulbecco’s modified Eagle’s medium (DMEM) and 4500 mg/L of glucose supplemented with GlutaMax^TM, 10% v/v fetal bovine serum (FBS), 100 units/mL penicillin, and 100 µg/mL streptomycin (all from Gibco/ThermoFisher, Waltham, MA, USA) at 37 °C in 5% CO2 at 95% humidity. For uptake inhibition assays, transporter-expressing cells and mock-transduced control cells were seeded on 96-well tissue culture plates at a density of 1 × 10^5 cells/well. Twenty-four hours after seeding, cells were rinsed twice with Krebs-Henseleit buffer (KH buffer, pH 7.4) and then preincubated for 30 min with solutions containing serial dilutions of the test compounds in KH at room temperature. Following preincubation, the solutions were removed, the cells were rinsed twice with KH buffer, and coincubation was started with a suitable radiolabeled substrate and the diluted series of test compounds. Assay conditions were as follows: 1 µM uridine (traced with 0.1 µCi ^3H-Uridine/well), 30 s (CNT1), and 1 min (CNT2, ENT1) incubations; 1 µM adenosine (traced with 0.1 µCi ^3H-Adenosine/well) and 2 min (ENT2) incubation. All experiments were conducted at room temperature. […] Uptake was terminated by rinsing twice with ice-cold KH buffer, and cells were lysed with 0.1 M NaOH. To determine the amounts of accumulated radiolabeled substrates, cell lysates mixed with a liquid scintillation cocktail were measured with a MicroBeta2 microplate counter (PerkinElmer, Singapore).
(§1) Transporter-specific accumulation of the probe substrate was calculated using the following formula: ACCSpec = ACCTRP − ACCMock, where ACCTRP is the accumulation of the probe in transporter-expressing cells and ACCMock is the accumulation of the probe in control cells. Relative transporter-specific accumulation values were calculated as percentages of the control value (with vehicle only).

Assay [2] addresses T2, ENT1 (Homo sapiens, UniProt Q99808).
T2 construct: expressed in transfected cells; host or cells: MDCKII (lentiviral transduction)
T2 sequence (Q99808 1-456): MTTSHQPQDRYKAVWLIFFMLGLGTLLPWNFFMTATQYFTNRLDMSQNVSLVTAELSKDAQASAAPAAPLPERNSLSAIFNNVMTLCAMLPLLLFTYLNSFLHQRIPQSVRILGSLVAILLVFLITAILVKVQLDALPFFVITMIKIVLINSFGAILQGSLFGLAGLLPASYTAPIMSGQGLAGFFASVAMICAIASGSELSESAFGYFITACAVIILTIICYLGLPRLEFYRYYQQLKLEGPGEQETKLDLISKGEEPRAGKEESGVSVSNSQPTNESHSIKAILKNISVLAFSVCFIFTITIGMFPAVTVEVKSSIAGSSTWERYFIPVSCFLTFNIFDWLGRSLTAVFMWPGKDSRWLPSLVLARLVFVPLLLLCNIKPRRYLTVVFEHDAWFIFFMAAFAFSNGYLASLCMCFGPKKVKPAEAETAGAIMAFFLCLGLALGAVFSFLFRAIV
Nature of the assay: ENT1-mediated uridine uptake in ENT1-MDCKII cells. The procedure:
ENT and CNT transporter interactions were investigated in transporter-overexpressing cell lines. Madin-Darby Canine Kidney II (MDCKII) cell lines overexpressing the human uptake transporters CNT1, CNT2, ENT1, and ENT2 were generated via lentiviral transduction. Cell cultures were maintained in Dulbecco’s modified Eagle’s medium (DMEM) and 4500 mg/L of glucose supplemented with GlutaMax^TM, 10% v/v fetal bovine serum (FBS), 100 units/mL penicillin, and 100 µg/mL streptomycin (all from Gibco/ThermoFisher, Waltham, MA, USA) at 37 °C in 5% CO2 at 95% humidity. For uptake inhibition assays, transporter-expressing cells and mock-transduced control cells were seeded on 96-well tissue culture plates at a density of 1 × 10^5 cells/well. […] To determine the amounts of accumulated radiolabeled substrates, cell lysates mixed with a liquid scintillation cocktail were measured with a MicroBeta2 microplate counter (PerkinElmer, Singapore).
as §1

Assay [3] has as its target T3, CNT2 (Homo sapiens, UniProt O43868).
T3 construct: expressed in transfected cells; host or cells: MDCKII (lentiviral transduction)
T3 sequence (O43868 1-658): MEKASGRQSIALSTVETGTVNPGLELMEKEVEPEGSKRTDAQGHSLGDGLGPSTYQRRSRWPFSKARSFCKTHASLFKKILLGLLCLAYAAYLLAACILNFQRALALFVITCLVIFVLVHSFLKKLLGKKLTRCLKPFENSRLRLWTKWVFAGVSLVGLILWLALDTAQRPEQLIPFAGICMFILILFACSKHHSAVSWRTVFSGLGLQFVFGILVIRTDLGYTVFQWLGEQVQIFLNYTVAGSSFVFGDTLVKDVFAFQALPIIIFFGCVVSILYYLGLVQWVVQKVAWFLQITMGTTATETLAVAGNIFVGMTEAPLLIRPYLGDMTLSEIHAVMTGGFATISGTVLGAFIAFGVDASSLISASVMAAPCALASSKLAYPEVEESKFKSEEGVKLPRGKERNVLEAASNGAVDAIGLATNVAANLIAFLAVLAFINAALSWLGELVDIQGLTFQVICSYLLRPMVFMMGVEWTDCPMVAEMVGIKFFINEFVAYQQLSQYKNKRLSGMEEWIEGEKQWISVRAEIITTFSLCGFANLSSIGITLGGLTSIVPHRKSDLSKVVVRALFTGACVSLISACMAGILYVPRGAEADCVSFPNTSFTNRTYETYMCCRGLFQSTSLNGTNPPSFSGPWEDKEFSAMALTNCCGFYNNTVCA
Nature of the assay: CNT2-mediated uridine uptake in CNT2-MDCKII cells. Here is the method: ENT and CNT transporter interactions were investigated in transporter-overexpressing cell lines. Madin-Darby Canine Kidney II (MDCKII) cell lines overexpressing the human uptake transporters CNT1, CNT2, ENT1, and ENT2 were generated via lentiviral transduction. Cell cultures were maintained in Dulbecco’s modified Eagle’s medium (DMEM) and 4500 mg/L of glucose supplemented with GlutaMax^TM, 10% v/v fetal bovine serum (FBS), 100 units/mL penicillin, and 100 µg/mL streptomycin (all from Gibco/ThermoFisher, Waltham, MA, USA) at 37 °C in 5% CO2 at 95% humidity. For uptake inhibition assays, transporter-expressing cells and mock-transduced control cells were seeded on 96-well tissue culture plates at a density of 1 × 10^5 cells/well. Twenty-four hours after seeding, cells were rinsed twice with Krebs-Henseleit buffer (KH buffer, pH 7.4) and then preincubated for 30 min with solutions containing serial dilutions of the test compounds in KH at room temperature. Following preincubation, the solutions were removed, the cells were rinsed twice with KH buffer, and coincubation was started with a suitable radiolabeled substrate and the diluted series of test compounds. Assay conditions were as follows: 1 µM uridine (traced with 0.1 µCi ^3H-Uridine/well), 30 s (CNT1), and 1 min (CNT2, ENT1) incubations; 1 µM adenosine (traced with 0.1 µCi ^3H-Adenosine/well) and 2 min (ENT2) incubation. All experiments were conducted at room temperature. […] To determine the amounts of accumulated radiolabeled substrates, cell lysates mixed with a liquid scintillation cocktail were measured with a MicroBeta2 microplate counter (PerkinElmer, Singapore).
as §1

Regarding `O=c1nc(NO)ccn1[C@@H]1O[C@H](CO)[C@@H](O)[C@H]1O` [EIDD-1931], the IC50 in assay [1] came out at 18.8 µM; in assay [3] (1 µM uridine), 10.2 µM. In addition, in assay [1] (at 200 μM), the “inhibition of CNT1-mediated uridine uptake” value is reported as “approximately 80%”. For the same compound, in assay [2] (at 200 μM), the “ENT1-mediated uridine transport, inhibited to % of the full activity” value is on record as “about 50%”. Moreover, in assay [3], the “inhibition of CNT2-mediated uridine uptake” value is recorded as “strong inhibition”.
For the compound `CC(C)C(=O)OC[C@H]1O[C@@H](n2ccc(NO)nc2=O)[C@H](O)[C@@H]1O` [EIDD-2801, Molnupiravir], the midpoint of inhibition in assay [1], the IC50, lay at 84.9 µM. The inhibition at 200 µM in assay [1] (read-out: inhibition of CNT1-mediated uridine uptake) was roughly 80%. The ENT1 uridine transport remaining, % of full activity at 200 µM in assay [2] (read-out: ENT1-mediated uridine transport, inhibited to % of the full activity) was roughly 50%. Also, the “inhibition of CNT2-mediated uridine uptake” value in assay [3] was “less potently inhibited”.

One may read the IC50 as the midpoint of a concentration-inhibition curve. A higher IC50 goes with weaker potency in that assay. A word on the inhibition: it is the percentage by which the read-out fell short of the control.
